Measured values from patent US20220081412A1, “QUINOLINYL-PYRAZINE-CARBOXAMIDE COMPOUNDS AND USES THEREOF” (The Regents of the University of Michigan, priority 2018, published 2022).

Tested on: NCI60 cell lines
Assay: NCI60 cell line panel
Format: cell-based, human
Method: The Developmental Therapeutics Program (DTP) of NCI has evaluated more than 100,000 pure compounds and more than 34,000 crude extracts against the panel of human tumor cell lines. The resultant data are analyzed using a program called COMPARE, that rank the entire database of tested compounds in the order of the similarity of the responses. […] Thus, the NCI60 databases is highly useful to the cancer research community. Further experiments were conducted that tested some of the active compounds in a panel of NCI60 cell line to relate our compounds with some known inhibitors to have an idea of possible mechanism of action.
In order to understand the selectivity of these compounds in different cancer types, some of them were tested against a panel of 60 cell lines (Table XXXIX).

O=C(Nc1cc(F)cc2cccnc12)c1cnc(N2CCNCC2)cn1 [J44, N-(6-fluoroquinolin-8-yl)-5-(piperazin-1-yl)pyrazine-2-carboxamide]
GIPRCNT: % Growth inhibition (Breast Cancer, BT-549): 82.22%
GIPRCNT: % Growth inhibition (Breast Cancer, HS 578T): 71.77%
GIPRCNT: % Growth inhibition (Breast Cancer, MCF7): 75.22%
GIPRCNT: % Growth inhibition (Breast Cancer, MDA-MB-231/ATCC): 10.16%
GIPRCNT: % Growth inhibition (Breast Cancer, MDA-MB-468): −5.124%
GIPRCNT: % Growth inhibition (Breast Cancer, T-47D): 18.05%
GIPRCNT: % Growth inhibition (CNS Cancer, SF-268): 77.45%
GIPRCNT: % Growth inhibition (CNS Cancer, SF-295): 89.3%
GIPRCNT: % Growth inhibition (CNS Cancer, SF-539): 85.5%
GIPRCNT: % Growth inhibition (CNS Cancer, SNB-19): 87.74%
GIPRCNT: % Growth inhibition (CNS Cancer, SNB-75): 82.71%
GIPRCNT: % Growth inhibition (CNS Cancer, U251): 63.6%
GIPRCNT: % Growth inhibition (Colon Cancer, COLO 205): 13.9%
GIPRCNT: % Growth inhibition (Colon Cancer, HCC-2998): 85.58%
GIPRCNT: % Growth inhibition (Colon Cancer, HCT-15): 40.52%
GIPRCNT: % Growth inhibition (Colon Cancer, HCT-116): 11%
GIPRCNT: % Growth inhibition (Colon Cancer, HT29): 36.78%
GIPRCNT: % Growth inhibition (Colon Cancer, KM12): 81.24%
GIPRCNT: % Growth inhibition (Colon Cancer, SW-620): 40.94%
GIPRCNT: % Growth inhibition (Leukemia, CCRF-CEM): 26.31%
GIPRCNT: % Growth inhibition (Leukemia, HL-60(TB)): 77.07%
GIPRCNT: % Growth inhibition (Leukemia, K-562): 19.84%
GIPRCNT: % Growth inhibition (Leukemia, MOLT-4): 24.48%
GIPRCNT: % Growth inhibition (Leukemia, RPMI-8226): 93.13%
GIPRCNT: % Growth inhibition (Leukemia, SR): 29.46%
GIPRCNT: % Growth inhibition (Melanoma, LOX IMVI): 65.76%
GIPRCNT: % Growth inhibition (Melanoma, M14): 86.06%
GIPRCNT: % Growth inhibition (Melanoma, MALME-3M): 59.5595%
GIPRCNT: % Growth inhibition (Melanoma, MDA-MB-435): 77.28%
GIPRCNT: % Growth inhibition (Melanoma, SK-MEL-2): 104.1313%
GIPRCNT: % Growth inhibition (Melanoma, SK-MEL-5): 97.38%
GIPRCNT: % Growth inhibition (Melanoma, UACC-62): 88.004%
GIPRCNT: % Growth inhibition (Melanoma, UACC-257): 91.12%
GIPRCNT: % Growth inhibition (Non-Small Cell Lung Cancer, A549/ATCC): 88.1%
GIPRCNT: % Growth inhibition (Non-Small Cell Lung Cancer, EKVX): 82.71%
GIPRCNT: % Growth inhibition (Non-Small Cell Lung Cancer, HOP-62): 85.24%
GIPRCNT: % Growth inhibition (Non-Small Cell Lung Cancer, HOP-92): 49.09%
GIPRCNT: % Growth inhibition (Non-Small Cell Lung Cancer, NCI-H23): 83.43%
GIPRCNT: % Growth inhibition (Non-Small Cell Lung Cancer, NCI-H226): 100.3613%
GIPRCNT: % Growth inhibition (Non-Small Cell Lung Cancer, NCI-H322M): 69.29%
GIPRCNT: % Growth inhibition (Non-Small Cell Lung Cancer, NCI-H460): 80.62%
GIPRCNT: % Growth inhibition (Non-Small Cell Lung Cancer, NCI-H522): 54.48%
GIPRCNT: % Growth inhibition (Ovarian Cancer, IGROV1): 100.6006%
GIPRCNT: % Growth inhibition (Ovarian Cancer, NCI/ADR-RES): 72.41%
GIPRCNT: % Growth inhibition (Ovarian Cancer, OVCAR-3): 43.52%
GIPRCNT: % Growth inhibition (Ovarian Cancer, OVCAR-4): 6.04%
GIPRCNT: % Growth inhibition (Ovarian Cancer, OVCAR-5): 11.16%
GIPRCNT: % Growth inhibition (Ovarian Cancer, OVCAR-8): 83.3637%
GIPRCNT: % Growth inhibition (Ovarian Cancer, SK-OV-3): 87.6273%
GIPRCNT: % Growth inhibition (Prostate Cancer, DU-145): 63.01%
GIPRCNT: % Growth inhibition (Prostate Cancer, PC-3): 29.0295%
GIPRCNT: % Growth inhibition (Renal Cancer, 786-0): 100.1067%
GIPRCNT: % Growth inhibition (Renal Cancer, A498): 89.1%
GIPRCNT: % Growth inhibition (Renal Cancer, ACHN): 88.67%
GIPRCNT: % Growth inhibition (Renal Cancer, CAKI-1): 28.3672%
GIPRCNT: % Growth inhibition (Renal Cancer, RXF 393): 52.45%
GIPRCNT: % Growth inhibition (Renal Cancer, SN12C): 54.07%
GIPRCNT: % Growth inhibition (Renal Cancer, TK-10): 74.98%
GIPRCNT: % Growth inhibition (Renal Cancer, UO-31): 66.57%
